“Also recorded” adds a separate entry of the source.
What was measured:
[1] = tested on: human Fas-apoptosis-sensitive Jurkat T cell line or human peripheral blood T lymphocytes; test: Cell death in Jurkat T cell line or peripheral blood T lymphocytes; type: cell-based
Text: According to understanding, the strong cell activation by simultaneous stimulation of a co-stimulation receptor and another death receptor is not a predictable outcome. […] A possible explanation for the strong activation in CD28^+/Fas^+ T cells is that B7-2 and FasL must be located in the close proximity to each other, as is the case when linked together in the B7-2-FasL-IgFc fusion protein.

Influenza hemaglutinin = tested on: Influenza hemaglutinin; parameters: species or system Balb/c mice; conditions: mouse; for HA-specific IgG, secondary response following boost / HA-specific IgG, primary response: in vivo; for HA-specific IgG, primary response: ip
[2] = tested on: Influenza hemaglutinin-specific T cell response; parameters: species or system Balb/c mice; conditions: mouse, in vivo, ip
[3] = tested on: Total T cells, CD4+ T cells and CD8+ T cells; test: Proliferation of purified human T cells (total, CD4+, CD8+); type: cell-based
Experimental: (§1) Human lymphocytes were stimulated for 3 days in 96 U-bottom well plates with various concentrations of recombinant fusion proteins. In some experiments, a NF-κB inhibitor (SN50, 18 μM, Calbiochem, San Diego, Calif., USA) and a MEK1/2 inhibitor (PD98059, 1 μg/ml, Calbiochem) were added to the cell culture media. Cell proliferation was assessed by thymidine uptake assays. Cultured cells were pulsed with 1 μCi/well of [^3H]thymidine (ICN, Costa Mesa, Calif., USA) for 18 hours and then harvested onto glass fiber filters. [^3H]thymidine incorporation was measured by standard liquid scintillation counting techniques. In some experiments, HA antigen-specific cell proliferation response was assayed by the MTT assay [van de Loosdrecht et al., J. Immunol. Methods, 174:311(1994)], which is a direct measure of cell viability.
PBMCs derived from normal healthy human adults were separated from whole blood using Ficoll-Paque Plus. Peripheral blood lymphocyte (PBL)-T cells, PBL-B cells, CD4^+ T cells, CD8^+ T cells were purified by negative selection using RosetteSep (StemCell Tec. Vancouver, BC, Canada), while non-T cells were purified by negative selection using pan-T magnet beads (M-450, Dynal, Lake Success, N.Y., USA). The purity of human PBL-T cells was greater than 97% as determined by CD3 staining and flow cytometry. […] CD4^+ and CD8^+ T cells were purified to greater than 90% positive for CD4 and CD8, respectively as determined by flow cytometry studies.
Total T cells, CD4^+ T cells and CD8^+ T cells were stimulated with either B7-2-FasL-IgFc or control fusion proteins. CD4^+ T cells and CD8^+ T cells were stimulated with various fusion proteins. After 72 hours in culture, cell proliferation was assessed. Data indicates the average and standard deviation of quadruplicate samples. The data represent the three experiments with similar results.

IL-2 = IL-2 production of T cells (ELISA); type: cell-based, human; conditions: 1 μg/ml, 3 days
Experimental: (§2) The relative concentrations of TNP-specific human IgG and IgM in supernatants from 4 day cultures were determined by ELISA assays. TNP22-BSA (1 μg/ml) was used to coat assay plates, and alkaline phosphatase-conjugated anti-human IgG (Fab-specific) (Sigma) or anti-human IgM (μ-chain-specific) (Sigma) were used as the detection reagents. The concentration of IL-2 in fusion protein-stimulated culture supernatants was measured by human-IL-2-specific ELISA kit (Roche, Laval, QC, Canada). The lower limit of detection was 30 pg/ml in IL-2 assay.
T cells were stimulated by B7-2-FasL-IgFc (1 μg/ml) or phytohemagglutinin (5 μg/ml) for 3 days. The concentration of IL-2 in culture supernatants was measured by ELISA assays. The lower limit of detection was 30 pg/ml in IL-2 assay. The data represent the three experiments with similar results.

T-bet = T-bet RNA in CD4+ T cells by RT-PCR; type: cell-based, human; conditions: 5 days
Experimental: (§3) Using specific primers, PRDI-BF1 RNA was amplified by RT-PCR (20 cycles) from cytoplasmic RNA derived from PBL cells stimulated for three days with fusion proteins (0.1 μM). T-bet and GATA3 RNAs were amplified by RT-PCR (25 cycles) from cytoplasmic RNA derived from CD4^+ T cells stimulated for five days with fusion proteins (0.1 μM). Each sample was subjected to electrophoresis on agarose gels and stained with ethidium bromide (EtBr) to detect amplified fragments: 594 bp for PRDI-BF1, 206 bp for T-bet and 131 bp for GATA3.
CD4^+ T cells were stimulated by B7-2-FasL-IgFc (0.1 μM) for 5 days before total RNA was harvested and tested for increased mRNA expression of T-bet (for Th1 differentiation) and GATA-3 (for Th2 differentiation) by RT-PCR. Each sample was electrophoresed on agarose gels and stained with ethidium bromide (EtBr) to detect amplified fragments: 206 bp for T-bet and 131 bp for GATA3. The data represent the three experiments with similar results.

[4] = tested on: human B lymphoma cells (Raji, Daudi); test: Cell death of human B lymphoma cells after treatment; type: cell-based; conditions: Raji and Daudi cells
human PBMCs = test: Proliferation of human PBMC ([3H]thymidine uptake); type: cell-based
Experimental: as §1
We cultured human PBMCs and mouse spleen cells in the presence of CD40L-FasL-IgFc. Whole blood, obtained from a healthy donor, was twice diluted with Na-PBS (pH 7.2) and peripheral blood mononuclear cells (PBMCs) were separated by Ficoll density gradients (Ficoll-Paque Plus, Amarsham Biotech) by centrifugation (Sorvall RT 6000, 1500 rpm for 15 minutes at room temperature). The peripheral blood mononuclear cells were collected from the interphase between the PBS top layer and Ficoll plus bottom layer, washed with PBS and subjected to cell proliferation assays. […]

[5] = tested on: PBL-T cells and PBL-non-T cells; test: Proliferation of PBL-T cells versus PBL-non-T cells; type: cell-based, human; conditions: 0.1 μM, 3 days
Experimental: as §1
PBL-T cells and PBL-non-T cells were stimulated with CD40L-FasL-IgFc (0.1 μM) for three days prior to proliferation assay. […] The data represent the three experiments with similar results. […]
PBMCs derived from normal healthy human adults were separated from whole blood using Ficoll-Paque Plus. […] The purity of human PBL-T cells was greater than 97% as determined by CD3 staining and flow cytometry. […] CD4^+ and CD8^+ T cells were purified to greater than 90% positive for CD4 and CD8, respectively as determined by flow cytometry studies.

[6] = tested on: B cell (CD19+) and monocyte (CD14+) fractions; test: Phenotype of CD40L-FasL-IgFc activated cells; type: cell-based, human; conditions: cultures stimulated for 5 days
PBL-B cells = test: TNP-specific IgG/IgM secretion ELISA; type: cell-based, human; conditions: 4 days culture, supernatant ELISA
Experimental: as §2
We next assessed the effect on IgG secretion by fusion protein-induced co-clustering of CD40 and Fas in B cells. PBL-B cells were incubated with CD40L-FasL-IgFc for four days and the supernatants were assayed for IgG- and IgM-specific trinitrophenyl (TNP) hapten [Galanaud et al., Cell. Immunol., 106:234 (1987)].
PBMCs were stimulated with fusion proteins for four days. The relative concentrations of TNP-specific human IgG and IgM in supernatants were determined by ELISA assays. […] The data represent the three experiments with similar results.

PRDI-BF1 = PRDI-BF1 RNA by RT-PCR; type: cell-based, human; conditions: 0.1 μM, 3 days
Experimental: as §3
PBMCs were stimulated with fusion proteins (0.1 μM) for three days. The total RNA was assayed for the message of PRDI-BF1 by RT-PCR. Each sample was electrophoresed on agarose gels and stained with ethidium bromide (EtBr) to detect amplified fragments. The data represent the results from three experiments with similar results.

OVA = test: Anti-OVA IgG response in immunized mice (ELISA titer); type: in vivo, Balb/c mice
Experimental: Balb/c mice (4-6 wks of age) were primed intra peritoneal (i.p.) route with 0.1 ml of protein antigens, OVA albumin (Sigma) or GSK […] (GlaxoSmithKline, Mississauga, Ontario, Canada), in the presence and absence of fusion protein or cDNA harboring plasmid. To determine the antigen-specific IgG titer in the serum of the individual mouse, ELISA were performed using 0.1 μg/ml antigen-coated assay plates (Maxisorp, Nunc 44-2404-21) following the standard procedure.
Balb/c mice were immunized i.p. with 0.2 μg of OVA and 5 μg of CD40L-FasL-IgFc (indicated as Primed). On Day 14, blood samples were harvested and subsequently mice were injected with 0.2 μg of OVA (indicated as Boosted). Sera from day 14 and day 21 were analysed by ELISA for the IgG activity against OVA. […] Squares indicate mice immunized with OVA alone. Circles indicate mice immunized with both OVA and CD40L-FasL-IgFc. Numbers in squares and circles indicate individual mouse. The […] activity of pre-immune serum from each mouse was equally low at less than 50 in titer.

B7-2-FasL-IgFc: fusion protein of human B7-2 extracellular domain, FasL extracellular domain and IgG1 Fc (SEQ ID NO: 17)
induction of cell death [1]: did not induce cell death | humoral and cellular immune responses in vivo (Influenza hemaglutinin): severe repression of humoral and cellular immune responses | HA-specific IgG, secondary response following boost (Influenza hemaglutinin): far lower | HA-specific IgG, primary response (Influenza hemaglutinin): repressed the antibody response | HA-specific CD8+ T cell response [2]: undetectable | HA-specific response by total T cells [2]: suppressed the HA-specific response by total T cells | T cell proliferation (mitogenic response) ([3]; 72 hours culture): strong activation of proliferation; also recorded: strong T cell-specific mitogenic response; also recorded: proliferation of both CD4^+ and CD8^+ T cells increased | magnitude of T cell proliferation compared with phytohemagglutinin (PHA) ([3]; 72 hours culture): comparable to that induced by the well-known T cell mitogen PHA; also recorded: comparable to phytohemagglutinin-induced T cell mitogenesis | dose required by CD8+ T cells to achieve similar levels of proliferation to CD4+ T cells ([3]; CD8+ versus CD4+ T cells): > 20 fold | IL-2 secretion by T cells (IL-2): secretion of IL-2 | T-bet transcription factor RNA (T-bet; CD4+ T cells, 0.1 μM): significant increase | differentiation of CD4+ T cells in vitro (T-bet; from T-bet/GATA3 RT-PCR): skewing towards Th1 subsets

CD40L-FasL-IgFc: fusion protein of human CD40L extracellular domain, human FasL extracellular domain and human IgG1 Fc (SEQ ID NO: 13)
cell death of B lymphoma cells [4]: did not undergo cell death | cell activation / mitogenic response (proliferation) of PBMC (human PBMCs; 3 days stimulation, 3H-thymidine, active even at 0.1-0.01 μg/ml): significant cell activation; also recorded: greatly exceeded the mitogenic response induced by the co-stimulation with CD40L-IgFc and FasL-IgFc | mitogenic activity after adsorption with Polymixin B (human PBMCs; fusion protein pre-absorbed with Polymixin B-coated beads, 3 days): did not attenuate the mitogenic activity | cell subset specificity of activation (T versus non-T/B cells) [5]: did not activate T lymphocytes but resulted in a strong mitogenic activity against B cells; also recorded: specific for the non-T cell subsets | increase of B cell (CD19+) fraction [6]: 30% | increase of monocyte (CD14+) fraction [6]: 15% | anti-TNP IgG secretion (PBL-B cells): significantly increased | expression of PRDI-BF1 RNA (PRDI-BF1): increased expression | OVA-specific IgG, primary response (OVA; 0.2 μg OVA + 5 μg fusion protein i.p., day 14 sera): high titers | OVA-specific IgG after boost (OVA; boost 0.2 μg OVA on day 14, day 21 sera): increased markedly | HA-specific IgG, secondary response following boost (Influenza hemaglutinin): far greater | HA-specific IgG, primary response (Influenza hemaglutinin): significantly increased the antibody response | HA-specific CD8+ T cell response [2]: only detectable in spleen cells immunized with CD40L-FasL-IgFc | HA-specific response by total T cells [2]: lowered the HA-specific response by total T cells
